ChEMBL document CHEMBL1201862, “PubChem BioAssay data set” (2004)
The source made the active and inactive calls.

Key:
[1] = target: Sphingosine 1-phosphate receptor 2 (Homo sapiens, UniProt O95136); assay: Dose Response Cell Based Assay for Agonists of the S1P2 Receptor. [Related pubchem assays: 729, 736, 843 ]; format: functional
[2] = microbe, parasite or virus in culture; format: functional; conditions: Mycobacterium tuberculosis
[3] = M. tuberculosis growth inhibition, HTS (AID 449762); format: functional
[4] = target: T1, Sentrin-specific protease 8 (Homo sapiens, UniProt Q96LD8); format: functional;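 note: luminescence read-out of SENP8 inhibition, dose-response confirmation following an ultra-high-throughput screen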
T1 sequence (Q96LD8 whole entry): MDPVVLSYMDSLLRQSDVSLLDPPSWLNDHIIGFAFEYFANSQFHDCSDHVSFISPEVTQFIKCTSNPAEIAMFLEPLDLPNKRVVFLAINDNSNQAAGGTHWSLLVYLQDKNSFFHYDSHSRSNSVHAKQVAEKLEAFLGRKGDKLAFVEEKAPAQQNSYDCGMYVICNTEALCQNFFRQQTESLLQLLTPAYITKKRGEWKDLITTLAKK

[5] = target: T2, Sentrin-specific protease 6 (Homo sapiens, UniProt Q9GZR1); format: functional;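 note: Luminescence-based dose-response confirmatory assay of SENP6 inhibition, following up an ultra-high-throughput screen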
T2 sequence (Q9GZR1 whole entry): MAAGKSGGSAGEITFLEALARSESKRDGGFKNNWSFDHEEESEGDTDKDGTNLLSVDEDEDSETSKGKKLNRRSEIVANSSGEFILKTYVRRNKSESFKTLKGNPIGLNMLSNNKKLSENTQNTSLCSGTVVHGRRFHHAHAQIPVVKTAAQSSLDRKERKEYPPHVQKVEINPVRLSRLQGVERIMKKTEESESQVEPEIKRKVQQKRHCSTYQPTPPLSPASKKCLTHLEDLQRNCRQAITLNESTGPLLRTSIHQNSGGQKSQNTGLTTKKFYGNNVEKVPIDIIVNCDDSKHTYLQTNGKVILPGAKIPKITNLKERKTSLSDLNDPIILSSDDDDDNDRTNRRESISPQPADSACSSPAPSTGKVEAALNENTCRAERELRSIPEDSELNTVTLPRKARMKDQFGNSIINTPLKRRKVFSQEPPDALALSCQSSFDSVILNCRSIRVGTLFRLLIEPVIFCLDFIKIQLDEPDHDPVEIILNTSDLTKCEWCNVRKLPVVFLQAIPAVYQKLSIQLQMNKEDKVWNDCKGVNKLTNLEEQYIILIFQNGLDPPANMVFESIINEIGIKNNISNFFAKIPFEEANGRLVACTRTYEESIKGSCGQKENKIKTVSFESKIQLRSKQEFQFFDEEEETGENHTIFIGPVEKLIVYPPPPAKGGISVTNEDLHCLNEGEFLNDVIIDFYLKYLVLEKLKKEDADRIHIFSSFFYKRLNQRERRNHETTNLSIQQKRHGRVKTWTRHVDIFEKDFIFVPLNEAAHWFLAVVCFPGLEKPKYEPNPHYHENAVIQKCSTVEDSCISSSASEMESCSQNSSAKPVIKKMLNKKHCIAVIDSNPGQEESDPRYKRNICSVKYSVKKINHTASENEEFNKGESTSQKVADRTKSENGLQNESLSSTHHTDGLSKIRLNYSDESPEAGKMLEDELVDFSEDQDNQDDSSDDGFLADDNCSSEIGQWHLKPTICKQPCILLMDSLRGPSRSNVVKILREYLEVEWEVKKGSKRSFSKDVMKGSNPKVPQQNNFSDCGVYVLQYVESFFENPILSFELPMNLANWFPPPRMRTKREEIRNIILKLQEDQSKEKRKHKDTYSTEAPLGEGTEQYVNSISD

[6] = target: T3, Caspase-3 (Homo sapiens, UniProt P42574); format: functional;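 note: Dose-response selectivity test against caspase-3 for candidate inhibitors of sentrin-specific proteases (SENPs)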
T3 sequence (P42574 whole entry): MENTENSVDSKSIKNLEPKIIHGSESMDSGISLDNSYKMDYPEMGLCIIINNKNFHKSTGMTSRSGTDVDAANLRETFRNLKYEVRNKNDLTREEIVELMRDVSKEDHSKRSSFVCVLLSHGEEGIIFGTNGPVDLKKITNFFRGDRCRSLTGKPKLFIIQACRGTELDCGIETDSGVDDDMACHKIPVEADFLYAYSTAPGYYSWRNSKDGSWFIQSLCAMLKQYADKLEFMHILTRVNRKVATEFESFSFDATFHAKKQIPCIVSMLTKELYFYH

[7] = target: T4, Sentrin-specific protease 7 (Homo sapiens, UniProt Q9BQF6); format: functional;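 note: Luminescence-based dose-response confirmation of ultra-high-throughput screening hits, measuring inhibition of SENP7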
T4 sequence (Q9BQF6 whole entry): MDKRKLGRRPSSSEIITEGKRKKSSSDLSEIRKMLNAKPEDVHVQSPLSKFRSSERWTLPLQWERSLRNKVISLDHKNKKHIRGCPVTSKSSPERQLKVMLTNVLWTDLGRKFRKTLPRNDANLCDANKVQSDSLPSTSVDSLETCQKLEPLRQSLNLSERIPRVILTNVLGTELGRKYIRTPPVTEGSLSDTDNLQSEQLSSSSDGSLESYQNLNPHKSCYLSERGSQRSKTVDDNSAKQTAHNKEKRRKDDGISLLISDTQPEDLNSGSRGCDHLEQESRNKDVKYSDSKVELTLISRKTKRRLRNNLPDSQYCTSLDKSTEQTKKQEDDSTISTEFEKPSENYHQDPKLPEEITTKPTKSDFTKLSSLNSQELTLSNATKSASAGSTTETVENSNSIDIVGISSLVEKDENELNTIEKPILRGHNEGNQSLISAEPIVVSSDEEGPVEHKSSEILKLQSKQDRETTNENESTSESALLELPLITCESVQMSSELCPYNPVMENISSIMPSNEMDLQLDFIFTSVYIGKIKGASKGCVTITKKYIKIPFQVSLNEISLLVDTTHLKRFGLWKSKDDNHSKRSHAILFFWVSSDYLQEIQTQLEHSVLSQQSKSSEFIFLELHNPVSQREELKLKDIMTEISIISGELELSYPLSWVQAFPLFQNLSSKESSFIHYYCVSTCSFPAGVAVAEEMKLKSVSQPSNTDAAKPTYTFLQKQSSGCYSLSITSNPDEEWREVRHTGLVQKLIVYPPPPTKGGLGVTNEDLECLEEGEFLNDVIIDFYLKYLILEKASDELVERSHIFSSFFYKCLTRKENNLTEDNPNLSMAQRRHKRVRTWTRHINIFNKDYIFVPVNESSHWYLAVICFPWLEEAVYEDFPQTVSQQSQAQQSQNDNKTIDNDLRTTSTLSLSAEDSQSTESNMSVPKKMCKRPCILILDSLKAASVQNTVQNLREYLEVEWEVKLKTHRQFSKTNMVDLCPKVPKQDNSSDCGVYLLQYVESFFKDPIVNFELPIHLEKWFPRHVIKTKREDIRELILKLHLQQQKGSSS

[8] = Luminescence-based cell-based high throughput dose response assay to identify activators of the DAF-12 from the parasite S. stercoralis (ssDAF-12).; format: functional
[9] = target: T5, Oxysterols receptor LXR-beta (Homo sapiens, UniProt P55055); assay: LXR agonists, Gal4 luciferase reporter, dose response, counter-screen for ssDAF-12 agonist project, cell-based, luminescence, HEK293, S. stercoralis campaign (AID 720737); format: functional; conditions: read-out: IC50 (the source's name)
T5 sequence (P55055 whole entry): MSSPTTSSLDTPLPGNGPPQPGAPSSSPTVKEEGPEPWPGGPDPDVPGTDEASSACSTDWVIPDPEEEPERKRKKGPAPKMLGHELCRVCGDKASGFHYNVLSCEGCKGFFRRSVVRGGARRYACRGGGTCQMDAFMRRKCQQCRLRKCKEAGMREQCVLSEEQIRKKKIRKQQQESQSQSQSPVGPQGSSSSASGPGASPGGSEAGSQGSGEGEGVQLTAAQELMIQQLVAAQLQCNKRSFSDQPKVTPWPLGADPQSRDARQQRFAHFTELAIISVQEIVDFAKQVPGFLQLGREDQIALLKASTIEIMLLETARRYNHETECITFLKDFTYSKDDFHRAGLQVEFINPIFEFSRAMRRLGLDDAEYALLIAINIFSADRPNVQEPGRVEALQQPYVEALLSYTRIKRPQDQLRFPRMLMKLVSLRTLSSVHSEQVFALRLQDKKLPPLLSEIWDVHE

[10] = target: Prothrombin (Homo sapiens, UniProt P00734); assay: Thrombin 1536 HTS Dose Response Confirmation. [Related pubchem assays: 1046 (Thrombin 1536 HTS; hits were confirmed in this assay)]; format: functional
[11] = target: Induced myeloid leukemia cell differentiation protein Mcl-1 (Homo sapiens, UniProt Q07820); format: functional
[12] = target: Ephrin type-A receptor 4 (Mus musculus, UniProt Q03137); assay: EphA4 ligand-binding antagonists – biochemical, colorimetric, mouse EphA4, primary screen (AID 689); format: functional
[13] = target: T6, Heat shock factor protein 1 (Mus musculus, UniProt P38532); assay: enhancement of HSF1-driven luciferase signal – cell-based, NIH3T3, luminescence, dose retest, confirmation (AID 435004); format: functional;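 note: stress induced by proteasome inhibitor MG132 added 30 min after compound; luciferase reporter driven by HSF1 response element in NIH3T3 cells; actives raise luminescence as potentiators of the MG132 stress response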
T6 sequence (P38532 whole entry): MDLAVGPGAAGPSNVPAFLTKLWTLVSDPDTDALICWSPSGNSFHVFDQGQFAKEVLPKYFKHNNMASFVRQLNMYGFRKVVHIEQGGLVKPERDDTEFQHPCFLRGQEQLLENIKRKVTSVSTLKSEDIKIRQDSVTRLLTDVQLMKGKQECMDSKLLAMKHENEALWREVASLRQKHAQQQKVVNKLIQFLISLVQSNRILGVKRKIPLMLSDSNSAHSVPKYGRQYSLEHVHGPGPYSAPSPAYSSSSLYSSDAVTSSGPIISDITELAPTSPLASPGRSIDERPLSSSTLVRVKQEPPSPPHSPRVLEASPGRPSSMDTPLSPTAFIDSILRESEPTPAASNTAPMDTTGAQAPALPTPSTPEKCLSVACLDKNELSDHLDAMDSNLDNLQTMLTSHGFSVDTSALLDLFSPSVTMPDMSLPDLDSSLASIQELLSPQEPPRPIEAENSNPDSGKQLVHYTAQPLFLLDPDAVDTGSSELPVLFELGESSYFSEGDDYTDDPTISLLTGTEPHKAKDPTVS

[14] = growth inhibition of yeast DHODH-expressing 3D7 parasites – SYBR Green, dry powder samples, dose response (AID 1159570); format: functional, cell-based;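 note: parasite growth measured after 72 hours of compound exposure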
[15] = P. falciparum Dd2 growth inhibitors, dose response, SYBR Green, cherry-picked samples (AID 1159567); format: functional, cell-based
[16] = Dd2 malaria parasite growth inhibition potency – SYBR Green, dry powder samples, dose response (AID 1159566); format: functional, cell-based;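 note: potency for growth inhibition with lower SYBR green DNA signal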
[17] = toxicity to human HepG2 hepatoma cells – cell-based, plate reader, dry powder samples, cytotoxicity control, dose response (AID 1159569); format: functional;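 note: inhibitor potency with signal falling toward the positive control level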
[18] = growth inhibition of PfATP4-mutant resistant parasites – NITD609-resistant line, SYBR Green, dry powder, dose response (AID 1159571); format: functional, cell-based;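 note: parasites synchronized at ring stage by sorbitol before testing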
[19] = target: Paired box protein Pax-8 (Homo sapiens, UniProt Q06710); assay: PAX8 transcriptional activity inhibition in RMG-I – RMG-I cells, luciferase, cherry-pick, dose response (AID 687027); format: functional, cell-based;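 note: luciferase reporter driven by Pax8 target thyroperoxidase promoter measured by SteadyGlo luminescence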
[20] = viability of uninfected HEp-2 cells – cell-based, HTS, cytotoxicity control for RSV inhibitor project, dose response (AID 2410); format: functional; conditions: human respiratory syncytial virus
[21] = THP-1 cell cytotoxicity, dose response, cytotoxicity control for non-replicating M. tuberculosis project (AID 489025); format: functional
[22] = system: HEK293; assay: EBV LMP1 TES2 canonical NF-kB signalling blockers – cell-based, HEK293, luciferase, cherry-pick, dose response (AID 588343); format: functional; conditions: Homo sapiens
[23] = target: Voltage-gated inwardly rectifying potassium channel KCNH2 (Homo sapiens, UniProt Q12809); conditions: Potency;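 note: confirmatory quantitative high-throughput screen measuring inhibition of hERG channel activity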
[24] = rise of 2N DNA cells, HeLa – IC50, dose response (AID 1117349); format: functional, cell-based
[25] = rise of 4N DNA cells, HeLa – IC50, dose response (AID 1117351); format: functional, cell-based

Chain of Ephrin type-A receptor 4 (Q03137 whole entry): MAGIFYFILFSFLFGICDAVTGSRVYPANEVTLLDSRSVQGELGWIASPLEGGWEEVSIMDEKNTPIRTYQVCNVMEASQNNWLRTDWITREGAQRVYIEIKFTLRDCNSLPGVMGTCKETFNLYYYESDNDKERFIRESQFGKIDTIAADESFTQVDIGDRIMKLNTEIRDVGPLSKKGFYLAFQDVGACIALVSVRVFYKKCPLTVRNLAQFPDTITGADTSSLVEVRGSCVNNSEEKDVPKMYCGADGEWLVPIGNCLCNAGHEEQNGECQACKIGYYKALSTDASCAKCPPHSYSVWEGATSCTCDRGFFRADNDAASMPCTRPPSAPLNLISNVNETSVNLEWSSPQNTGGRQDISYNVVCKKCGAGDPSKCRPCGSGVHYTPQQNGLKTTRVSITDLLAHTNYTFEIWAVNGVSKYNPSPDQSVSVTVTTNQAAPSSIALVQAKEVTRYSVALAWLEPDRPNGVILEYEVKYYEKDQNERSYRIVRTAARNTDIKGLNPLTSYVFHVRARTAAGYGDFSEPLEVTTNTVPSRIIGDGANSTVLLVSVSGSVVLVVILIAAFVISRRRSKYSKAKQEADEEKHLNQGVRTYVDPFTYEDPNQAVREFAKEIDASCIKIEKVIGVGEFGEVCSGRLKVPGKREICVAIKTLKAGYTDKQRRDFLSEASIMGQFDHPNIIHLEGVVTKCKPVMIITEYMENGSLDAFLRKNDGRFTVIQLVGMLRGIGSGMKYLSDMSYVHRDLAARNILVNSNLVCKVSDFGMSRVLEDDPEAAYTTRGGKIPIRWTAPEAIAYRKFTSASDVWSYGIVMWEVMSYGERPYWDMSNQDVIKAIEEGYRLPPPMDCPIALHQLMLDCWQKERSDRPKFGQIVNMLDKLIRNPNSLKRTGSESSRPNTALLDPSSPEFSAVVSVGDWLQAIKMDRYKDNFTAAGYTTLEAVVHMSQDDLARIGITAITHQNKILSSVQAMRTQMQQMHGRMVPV
Chain of Paired box protein Pax-8 (Q06710 whole entry): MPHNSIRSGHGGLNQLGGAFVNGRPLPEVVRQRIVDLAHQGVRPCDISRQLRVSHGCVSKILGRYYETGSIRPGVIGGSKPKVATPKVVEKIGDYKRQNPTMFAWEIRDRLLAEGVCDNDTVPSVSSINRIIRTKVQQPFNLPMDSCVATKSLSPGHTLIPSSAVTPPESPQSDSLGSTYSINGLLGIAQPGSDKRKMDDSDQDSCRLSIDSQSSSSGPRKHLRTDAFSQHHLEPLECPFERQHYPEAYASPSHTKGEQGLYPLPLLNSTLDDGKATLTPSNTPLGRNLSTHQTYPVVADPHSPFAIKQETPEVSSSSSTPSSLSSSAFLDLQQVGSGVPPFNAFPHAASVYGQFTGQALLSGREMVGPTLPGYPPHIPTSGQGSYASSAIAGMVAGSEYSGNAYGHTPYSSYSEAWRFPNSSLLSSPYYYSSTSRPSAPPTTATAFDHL
Chain of Induced myeloid leukemia cell differentiation protein Mcl-1 (Q07820 whole entry): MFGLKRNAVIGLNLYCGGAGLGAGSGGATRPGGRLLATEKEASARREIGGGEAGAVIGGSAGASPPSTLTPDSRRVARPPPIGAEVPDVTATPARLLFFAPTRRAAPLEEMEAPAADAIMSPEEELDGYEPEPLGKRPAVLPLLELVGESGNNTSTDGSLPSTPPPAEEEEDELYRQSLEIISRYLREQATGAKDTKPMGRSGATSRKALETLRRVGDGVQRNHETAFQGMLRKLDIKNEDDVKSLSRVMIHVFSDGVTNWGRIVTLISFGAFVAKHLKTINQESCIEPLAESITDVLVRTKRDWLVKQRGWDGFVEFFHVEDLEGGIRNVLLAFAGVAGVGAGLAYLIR
Chain of Voltage-gated inwardly rectifying potassium channel KCNH2 (Q12809 whole entry): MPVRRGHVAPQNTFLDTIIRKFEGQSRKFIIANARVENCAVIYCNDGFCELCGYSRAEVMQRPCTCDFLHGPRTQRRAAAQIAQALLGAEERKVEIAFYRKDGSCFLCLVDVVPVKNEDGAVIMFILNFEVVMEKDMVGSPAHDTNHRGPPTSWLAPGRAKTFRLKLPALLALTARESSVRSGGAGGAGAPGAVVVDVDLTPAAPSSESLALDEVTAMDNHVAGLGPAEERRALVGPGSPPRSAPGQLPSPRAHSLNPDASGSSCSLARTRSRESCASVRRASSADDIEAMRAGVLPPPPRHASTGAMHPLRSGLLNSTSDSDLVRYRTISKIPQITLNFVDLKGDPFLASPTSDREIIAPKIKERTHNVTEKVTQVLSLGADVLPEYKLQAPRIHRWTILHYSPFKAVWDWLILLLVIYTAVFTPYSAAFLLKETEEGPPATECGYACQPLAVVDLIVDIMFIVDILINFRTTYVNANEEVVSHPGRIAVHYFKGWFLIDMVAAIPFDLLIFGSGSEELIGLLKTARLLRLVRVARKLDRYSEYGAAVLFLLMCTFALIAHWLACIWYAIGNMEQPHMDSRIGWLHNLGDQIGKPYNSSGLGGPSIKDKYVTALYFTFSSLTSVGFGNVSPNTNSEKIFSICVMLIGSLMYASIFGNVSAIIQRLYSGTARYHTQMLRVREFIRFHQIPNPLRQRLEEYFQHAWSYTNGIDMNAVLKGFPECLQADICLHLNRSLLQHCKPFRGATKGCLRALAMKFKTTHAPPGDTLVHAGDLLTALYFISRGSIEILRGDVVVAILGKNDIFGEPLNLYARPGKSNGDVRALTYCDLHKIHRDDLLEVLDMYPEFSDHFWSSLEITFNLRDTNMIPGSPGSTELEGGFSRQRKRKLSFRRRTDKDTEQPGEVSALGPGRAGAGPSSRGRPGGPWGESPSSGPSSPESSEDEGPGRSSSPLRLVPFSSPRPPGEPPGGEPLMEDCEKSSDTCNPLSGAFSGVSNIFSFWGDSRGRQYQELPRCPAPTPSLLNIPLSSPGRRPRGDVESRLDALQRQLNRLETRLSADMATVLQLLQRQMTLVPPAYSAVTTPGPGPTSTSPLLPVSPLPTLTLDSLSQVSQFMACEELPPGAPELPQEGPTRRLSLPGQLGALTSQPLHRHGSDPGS
Chain of Sphingosine 1-phosphate receptor 2 (O95136 whole entry): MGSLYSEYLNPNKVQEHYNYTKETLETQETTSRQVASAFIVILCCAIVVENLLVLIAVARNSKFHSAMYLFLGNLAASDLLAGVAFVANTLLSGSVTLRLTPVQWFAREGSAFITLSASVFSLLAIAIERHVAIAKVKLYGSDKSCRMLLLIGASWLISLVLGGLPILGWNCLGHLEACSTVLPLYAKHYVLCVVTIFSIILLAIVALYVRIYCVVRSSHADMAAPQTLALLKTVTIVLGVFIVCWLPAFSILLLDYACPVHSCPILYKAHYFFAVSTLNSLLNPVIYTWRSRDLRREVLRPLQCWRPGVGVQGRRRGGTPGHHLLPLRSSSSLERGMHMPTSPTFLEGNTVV

SMILES: CCOC(=O)c1cc2ccc(OC)c(OC)c2c(=O)s1
- EC50 [1]: > 50 µM (not active)

SMILES: COc1ccc(-c2c(-c3cc(OC)cc(OC)c3)n(C)c3ccc(-c4cc[nH]n4)cc23)cc1
- CC50 [2]: > 40 µM (active)
- IC50 [3]: > 100 µM (active)

SMILES: Cc1ccc(NC(=O)c2oc3ccccc3c2C)nc1
- IC50 [4]: > 100 µM (inactive)
- IC50 [5]: 85.3 µM (active)
- IC50 [6]: 25.8 µM (active)
- IC50 [7]: 7.35 µM (active)
- IC50 [8]: > 67.5 µM (inactive)
- EC50 [9]: > 67.5 µM (inactive)

SMILES: Cn1c(SCC(=O)c2ccc3c(c2)NC(=O)CO3)nc2ccccc21
- IC50 [10]: > 50 µM (not active)

SMILES: CCN(CCO)c1nc(SC)nc2c1sc1nc(-c3ccco3)c3c(c12)CCC3
- IC50 [11]: 1.85 µM (active)
- IC50 [12]: 24.1 µM (active)
- EC50 [13]: 66.5 µM (active)

SMILES: C[C@H](CO)N1C[C@H](C)[C@H](CN(C)S(=O)(=O)c2cccc(F)c2)OCc2ccccc2-c2c(n(C)c3ccccc23)C1=O
- AC50 [14]: 1.6 µM (active)
- AC50 [15]: 2.07 µM (active)
- AC50 [16]: 0.722 µM (active)
- AC50 [17]: 31.5 µM (active)
- AC50 [18]: 0.62 µM (active)
- AC50 [19]: 11.3 µM (active)

SMILES: CCOC(=O)c1ccc(/N=C2\SC(C(=O)Nc3ccc(C(=O)O)cc3)CC(=O)N2Cc2cccs2)cc1 (configuration not stated)
- CC50 [20]: 13 µM (active)
- CC50 [21]: > 40 µM (active)
- IC50 [3]: > 100 µM (active)

SMILES: Cc1ccc(OC(=O)N(C)C[C@H]2OCc3ccccc3-c3c(n(C)c4ccccc34)C(=O)N([C@H](C)CO)C[C@@H]2C)cc1
- AC50 [14]: 1.72 µM (active)
- AC50 [15]: 2.53 µM (active)
- AC50 [16]: 1.71 µM (active)
- AC50 [17]: 22.9 µM (active)
- AC50 [18]: 1.96 µM (active)

SMILES: COc1ccccc1C(=O)n1nc(-c2ccco2)nc1SC
- IC50 [10]: 0.001 µM (active)

SMILES: N[C@@H](Cc1ccc(N(CCCl)CCCl)cc1)C(=O)O
- AC50 [22]: 10.3 µM (active)
- AC50 [23]: 15.8 µM (inconclusive)
- IC50 [24]: 2.26 µM (active)
- IC50 [25]: 5.36 µM (inactive)
